What all share (assay type): in vivo
The subject of test [1] is Anguina pacificae nematodes. The test is described as follows: Nematode count in soil of a treated Poa annua green, Pebble Beach. The settings on record: 87 DAA, untreated 212.5. The text has this: FIG. 1 sets forth comparative numerical representations of Anguina pacificae nematodes found in 100 cc untreated soil, 100 cc soil treated with azadirachtin, and 100 cc soil treated with fluopyram at defined concentrations and doses. In the legend provided, each letter (e.g., “A,” “B,” “C,” etc.) represents a two week interval (e.g., AC=4-week interval).
Example 1 describes effects of various treatments on nematode population on a Poa annua green at Pebble Beach.
(§1) Trials are kept free of any pests that can interfere or impact and nematode evaluations and yields.
(§2) A Poa annua green is treated by spraying the active ingredient on foliage and waiting at least three hours before irrigating into the thatch/mat layer for upward movement into the stem region (just above the crown) where the nematode resides. One or more applications can be made in 2-8 weeks. The interval may be longer if control has not declined, or treatments are to be applied in different seasons (e.g., spring and fall).
In FIG. 1, a Poa annua green is evaluated and counts of nematodes per 100 cc soil are taken 87 days after anthesis (DAA). The first column represents nematode count at 87 DAA in an untreated sample of turfgrass. The second column represents nematode count at 87 DAA in turfgrass treated with 250 g ai/ha fluopyram at 4-week intervals. The third column represents nematode count at 87 DAA in turfgrass treated with 500 g ai/ha fluopyram at 4-week intervals. The fourth column represents nematode count at 87 DAA in turfgrass treated with 286 g ai/ha azadirachtin applied bi-weekly to the soil. FIG. 1 corresponds to Table 1, below.

Test [2] has as its system Poa annua turfgrass. The test can be described thus: Turf quality evaluation of a treated Poa annua green, Pebble Beach. The settings on record: 96 DAA, 1-9 scale (9 = best, 6 = acceptable), untreated 4.8. The protocol: FIG. 2 sets forth comparative turf quality evaluations of Poa annua turfgrass treated with fluopyram at defined concentrations and doses. In the legend provided, each letter (e.g., “A,” “B,” “C,” etc.) represents a two week interval (e.g., AC=4-week interval).
as §2
In FIG. 2, turf quality of a Poa annua green is evaluated 96 DAA. The first column represents turf quality at 96 DAA in an untreated sample of turfgrass. The second column represents turf quality at 96 DAA in turfgrass treated with 250 g ai/ha fluopyram at 4-week intervals. The third column represents turf quality at 96 DAA in turfgrass treated with 500 g ai/ha fluopyram at 4-week intervals. The fourth column represents turf quality at 96 DAA in turfgrass treated with 286 g ai/ha azadirachtin applied bi-weekly to the soil. FIG. 2 corresponds to Table 2, below.

The subject of test [3] is Poa annua turfgrass. The test is described as follows: Crop Circle ACS-430 canopy sensor vegetation index (RVI, NDVI) of a treated Poa annua green, Pebble Beach. The settings on record: for NDVI (Normalized Difference Vegetation Index) / RVI (Ratio Vegetation Index): Pebble Beach, 96 DAA; for NDVI (Normalized Difference Vegetation Index): untreated 0.7064; for RVI (Ratio Vegetation Index): untreated 5.830.
Source text: FIG. 3 sets forth comparative RVI measurements of Poa annua turfgrass treated with fluopyram at defined concentrations and doses. In the legend provided, each letter (e.g., “A,” “B,” “C,” etc.) represents a two week interval (e.g., AC=4-week interval).
FIG. 4 sets forth comparative NDVI measurements of Poa annua turfgrass treated with fluopyram at defined concentrations and doses. In the legend provided, each letter (e.g., “A,” “B,” “C,” etc.) represents a two week interval (e.g., AC=4-week interval).
as §2
A Crop Circle ACS-430 active crop canopy sensor (Holland Scientific, Inc.) provided classic vegetation index data (RVI=Ratio Vegetation Indices; NDVI=Normalized difference vegetative index) from the turf canopy. Unlike passive radiometric light sensors, the Crop Circle ACS-430 is not limited by ambient lighting conditions and measurements were made by day due to its unique light source technology. Information produced by the sensor can be utilized to quantify the impact of nutrients, water, disease or other growing conditions on the turf plant. The ratio vegetation index (RVI) is formed by dividing the near infra-red irradiance by the red irradiance. Study plots were scanned at intervals to collect this quantitative data. The normalized difference vegetative index (NDVI) is calculated as follows: […]
where VIS and NIR stand for the spectral reflectance measurements acquired in the visible (red) and near-infrared regions, respectively.
In FIG. 3, RVI of a Poa annua green is evaluated 96 DAA. The first column represents RVI at 96 DAA in an untreated sample of turfgrass. The second column represents RVI at 96 DAA in turfgrass treated with 250 g ai/ha fluopyram at 4-week intervals. The third column represents RVI at 96 DAA in turfgrass treated with 500 g ai/ha fluopyram at 4-week intervals. The fourth column represents RVI at 96 DAA in turfgrass treated with 286 g ai/ha azadirachtin applied bi-weekly to the soil. FIG. 3 corresponds to Table 3, below.
In FIG. 4, NDVI of a Poa annua green is evaluated 96 DAA. The first column represents NDVI at 96 DAA in an untreated sample of turfgrass. The second column represents NDVI at 96 DAA in turfgrass treated with 250 g ai/ha fluopyram at 4-week intervals. The third column represents NDVI at 96 DAA in turfgrass treated with 500 g ai/ha fluopyram at 4-week intervals. The fourth column represents NDVI at 96 DAA in turfgrass treated with 286 g ai/ha azadirachtin applied bi-weekly to the soil. FIG. 4 corresponds to Table 4, below.

For test [4], the system named is Anguina pacificae nematode galls. The test can be described thus: Nematode gall count of a treated Poa annua green, Pebble Beach.
Source text: FIG. 5 sets forth comparative numerical representations of Anguina pacificae nematodes galls found in 100 cc untreated soil, 100 cc soil treated with azadirachtin, and 100 cc soil treated with fluopyram at defined concentrations and doses. In the legend provided, each letter (e.g., “A,” “B,” “C,” etc.) represents a two week interval (e.g., AC=4-week interval).
Example 2 describes effects of various treatments on nematode population on a Poa annua green at Pebble Beach.
as §1, §2
In FIG. 5, a Poa annua green is evaluated and counts of nematode galls per 100 cc soil are taken 87 and 139 days after anthesis (DAA). The first and fifth columns represent nematode gall count at 87 and 139 DAA, respectively, in an untreated sample of turfgrass. The second and sixth columns represent nematode gall count at 87 and 139 DAA, respectively, in turfgrass treated with 250 g ai/ha fluopyram at 4-week intervals. The third and seventh columns represent nematode gall count at 87 and 139 DAA, respectively, in turfgrass treated with 500 g ai/ha fluopyram at 4-week intervals. The fourth and eighth columns represent nematode gall count at 87 and 139 DAA, respectively, in turfgrass treated with 286 g ai/ha azadirachtin applied bi-weekly to the soil. FIG. 5 corresponds to Table 5 (87 DAA) and Table 6 (139 DAA), below.

Test [5] has the same test system. The test can be described thus: Nematode gall count of a treated Poa annua green, The Links at Spanish Bay. The settings on record: 171 DAA, untreated 22.8.
Source text: FIG. 6 sets forth comparative numerical representations of Anguina pacificae nematode galls found in 100 cc untreated soil, 100 cc soil treated with azadirachtin+cimectacarb, and 100 cc soil treated with fluopyram at defined concentrations and doses. In the legend provided, each letter (e.g., “A,” “B,” “C,” etc.) represents a two week interval (e.g., AC=4-week interval).
Example 3 describes effects of various treatments on nematode population on a Poa annua green at The Links at Spanish Bay.
as §1, §2
In FIG. 6, a Poa annua green is evaluated and counts of nematode galls per 100 cc soil are taken 171 days after anthesis (DAA). The first column represents nematode count at 171 DAA in an untreated sample of turfgrass. The second column represents nematode count at 171 DAA in turfgrass treated with 250 g ai/ha fluopyram at 4-week intervals. […]

Test [6] deals with Poa annua turfgrass. The test is described as follows: Turf quality evaluation of a treated Poa annua green, The Links at Spanish Bay. The settings on record: 179 DAA, 0-10 scale (10 = best), untreated 5.5. How it is done:
FIG. 7 sets forth comparative turf quality evaluations of Poa annua turfgrass treated with fluopyram at defined concentrations and doses. In the legend provided, each letter (e.g., “A,” “B,” “C,” etc.) represents a two week interval (e.g., AC=4-week interval).
as §2
In FIG. 7, turf quality of a Poa annua green is evaluated 179 DAA. The first column represents turf quality at 179 DAA in an untreated sample of turfgrass. The second column represents turf quality at 179 DAA in turfgrass treated with 250 g ai/ha fluopyram at 4-week intervals. The third column represents turf quality at 179 DAA in turfgrass treated with 500 g ai/ha fluopyram at 4-week intervals. The fourth column represents turf quality at 179 DAA in turfgrass treated with 286 g ai/ha azadirachtin applied bi-weekly to the soil. FIG. 7 corresponds to Table 8, below.

The mark [7] stands for this setting: 286 g ai/ha applied bi-weekly to the soil.
The mark [8] stands for this setting: 250 g ai/ha at 4-week intervals.
The mark [9] stands for this setting: 500 g ai/ha at 4-week intervals.

The structures appear in SMILES notation.

With `C/C=C(\C)C(=O)O[C@H]1C[C@@H](OC(C)=O)[C@@]2(C(=O)OC)CO[C@H]3[C@@H](O)[C@@](C)([C@]45O[C@@]4(C)[C@H]4C[C@@H]5O[C@@H]5OC=C[C@@]54O)[C@H]4[C@]1(CO[C@]4(O)C(=O)OC)[C@@H]32` [azadirachtin], the Nematodes/100 cc soil in test [1] (setting [7]) was found to be 270 nematodes/100 cc soil. Further, the “Turf Quality” value in the test with Poa annua turfgrass [2] (setting [7]) was 4.8. Further, in the test with Poa annua turfgrass [3] (setting [7]), the “NDVI (Normalized Difference Vegetation Index)” value was 0.6865 and the “RVI (Ratio Vegetation Index)” value amounted to 5.425. The “Nematode galls/100 cc soil” value in test [4] (286 g ai/ha applied bi-weekly to the soil, 87 DAA, untreated 31) is given as 34 galls/100 cc soil. For the same compound, the “Nematode galls/100 cc soil” value in test [4] (286 g ai/ha applied bi-weekly to the soil, 139 DAA, untreated 19) was 16 galls/100 cc soil.
For the compound `O=C(NCCc1ncc(C(F)(F)F)cc1Cl)c1ccccc1C(F)(F)F` [fluopyram, N-{2-[3-chloro-5-(trifluoromethyl)-2-pyridinyl]ethyl}-2-(trifluoromethyl) benzamide], the Nematodes/100 cc soil in test [1] (setting [8]) and in test [1] (setting [9]) was 17.5 nematodes/100 cc soil in each case. The “Turf Quality” value in the test with Poa annua turfgrass [2] (setting [8]) is listed as 7.4; with Poa annua turfgrass [2] (setting [9]), 8.1; with Poa annua turfgrass [6] (setting [8]), 6.0; in the test on Poa annua turfgrass [6] (setting [9]), 8.5. Further, the “NDVI (Normalized Difference Vegetation Index)” value is reported as 0.7634 with Poa annua turfgrass [3] (setting [8]) and 0.7908 in the test on Poa annua turfgrass [3] (setting [9]). Moreover, the “RVI (Ratio Vegetation Index)” value in the test with Poa annua turfgrass [3] (setting [8]) is 7.475; in the test with Poa annua turfgrass [3] (setting [9]), 8.598. In addition, the “Vegetative index (RVI and NDVI) compared to the untreated control” value in the test on Poa annua turfgrass [3] (averaged over the course of the study, Poa annua turfgrass) is recorded as “positively enhanced vegetative index”. Also, the “Nematode galls/100 cc soil” value stood at 6 galls/100 cc soil in test [4] (250 g ai/ha at 4-week intervals, 87 DAA, untreated 31); 2 galls/100 cc soil in test [4] (250 g ai/ha at 4-week intervals, 139 DAA, untreated 19); 3 galls/100 cc soil in test [4] (500 g ai/ha at 4-week intervals, 87 DAA, untreated 31); 0.5 galls/100 cc soil in test [4] (500 g ai/ha at 4-week intervals, 139 DAA, untreated 19); 4.3 galls/100 cc soil in test [5] (setting [8]); 1.8 galls/100 cc soil in test [5] (setting [9]).

For the origin of these results see patent US20180042232A1, “Methods and Compositions for Reducing Anguina Nematode Infestation and Improving Grass Quality” (Bayer CropScience LP, priority 2015, published 2018).
